In patent publication US20200237909A1, “METHODS OF TREATING OR PREVENTING BREAST CANCER METASTASES USING ANTIBODIES TO JAGGED1 AND CHEMOTHERAPEUTIC AGENTS” (The Trustees of Princeton University, priority 2017, published 2020):

Experiments:
[1] = test system: SCP28; test: CC3 immunofluorescent staining of GFP-positive tumor cells in mouse bone sections; assay type: in vivo, mice; settings: after two rounds of treatment
Method: (§1) FIG. 7. Pro-survival effect of osteoblast Jagged1 on cancer cells can be blocked by 15D11. (A) 3-D tumorsphere culture of MCF7, SCP28, and SUM1315-M1B1 cells, alone or in co-cultured with osteoblast cells, were treated with indicated concentrations of cisplatin or docetaxel. Two days after the chemotherapy, the surviving tumor spheres were counted under the fluorescent microscope. n=3. *p<0.05 by Student's t-test. (B) Cell culture of SCP28 cells alone or in co-culture with MC3T3-E1 pre-osteoblast cells were treated with PBS control or cisplatin. Protein samples were collected at 6 hr, 24 hr, and 72 hr later. Cleaved PARP and cleaved caspase-3 were determined by immunoblotting. # marks full length PARP and * marks cleaved PARP. […] Hind limb bones were fixed and cryo-sectioned for IF staining against CC3 for apoptotic cells and GFP for tumor cells (E), and CC3 positive apoptotic cells among GFP-positive tumor cells were quantified in F. Size bar: 25 μm. n=5. **p<0.01 by Student's t-test. […] Tumor cells in the bone were quantified based on BLI imaging at Day 1 and Day 4. […]
Hindlimb bones were excised from mice at the end point of each experiment, immediately after the last BLI time point. […] For quantitative analysis of lesion area, a 10× objective was used to focus on the tumor region of interest and images were acquired using the AxioCamICc3 camera set to an exposure of around 100 ms. […]

[2] = test system: SCP28; test: Cleaved PARP and cleaved caspase-3 immunoblotting after cisplatin; assay type: cell-based, human; settings: SCP28 single-cultured cells, 72 hours post-treatment
Method: as §1
To mimic chemoresistance and tumor seeding effects by osteoblast lineage cells in vitro, an in vitro 3D tumor-stroma co-culture assay (Wang et al., 2015) was adapted. […] Cleaved PARP and cleaved caspase-3 (CC3) status were analyzed by immuno-blotting at different time points after cisplatin treatment. […]

| SMILES | CC3 positive tumor cells [1] | cleaved PARP and CC3 [2] |
| --- | --- | --- |
| CC(=O)O[C@H]1C(=O)[C@@]2(C)[C@H]([C@H](OC(=O)c3ccccc3)[C@]3(O)C[C@H](OC(=O)[C@H](O)[C@@H](NC(=O)c4ccccc4)c4ccccc4)C(C)=C1C3(C)C)[C@]1(OC(C)=O)CO[C@@H]1C[C@@H]2O [paclitaxel] | substantial numbers of tumor cells |  |
| N.N.[Cl][Pt][Cl] [cisplatin] |  | strong induction |
